Test results from US4175125A, “Method for treating methicillin resistant staphylococcus aureus” (Eli Lilly and Company, priority 1978, dated 1979).

How the values were obtained:
S. typhosa SA12 = test: In vitro MIC in agar, additional microorganisms; format: cell-based
[1] = system: Staphylococcus aureus cultures; test: Agar dilution MIC, Example 13 compound vs methicillin resistant Staphylococcus aureus; format: cell-based
Source text: The table which follows gives the minimum inhibitory concentration (MIC) in micrograms of compound per milliliter of culture (μg/ml), in comparison with similar MIC values for the known antibiotics methicillin, cephalothin and cephaloridine against the same strains of bacteria.

C. ulmi = test: In vitro MIC in agar, additional microorganisms; format: cell-based
Source text: (§1) The compound of Example 13 gave the following in vitro minimum inhibitory concentrations (MIC values), in microgram/milliliter of agar (μg/ml.) against the following additional microorganisms

S. aureus = test: In vitro MIC in agar, additional microorganisms; format: cell-based; settings: Staphylococcus aureus
Source text: as §1

S. facalis X66 = test: In vitro MIC in agar, additional microorganisms; format: cell-based
Source text: as §1

[2] = system: P. morganii, indole positive; test: In vitro MIC in agar, additional microorganisms; format: cell-based; settings: Morganella morganii
Source text: as §1

T. mentagrophytes 27 = test: In vitro MIC in agar, additional microorganisms; format: cell-based; settings: Trichophyton mentagrophytes
Source text: as §1

S. typhimurium = test: In vitro MIC in agar, additional microorganisms; format: cell-based; settings: Salmonella enterica
Source text: as §1

E. aerogenes EB17 = test: In vitro MIC in agar, additional microorganisms; format: cell-based; settings: Klebsiella aerogenes
Source text: as §1

S. marcescens SE3 = test: In vitro MIC in agar, additional microorganisms; format: cell-based; settings: Serratia marcescens
Source text: as §1

E. amylovora = test: In vitro MIC in agar, additional microorganisms; format: cell-based; settings: Erwinia amylovora
Source text: as §1

E. coli EC14 = test: In vitro MIC in agar, additional microorganisms; format: cell-based; settings: Escherichia coli
Source text: as §1

P. solenaecarum X185 = test: In vitro MIC in agar, additional microorganisms; format: cell-based
Source text: as §1

P. aeroginosa X239 = test: In vitro MIC in agar, additional microorganisms; format: cell-based
Source text: as §1

A. flavus = test: In vitro MIC in agar, additional microorganisms; format: cell-based; settings: Aspergillus flavus
Source text: as §1

H. pneumoniae KL14 = test: In vitro MIC in agar, additional microorganisms; format: cell-based; settings: Klebsiella pneumoniae
Source text: as §1

C. freundii CF17 = test: In vitro MIC in agar, additional microorganisms; format: cell-based; settings: Citrobacter freundii
Source text: as §1

C. tropicalis A17 = test: In vitro MIC in agar, additional microorganisms; format: cell-based; settings: Candida tropicalis
Source text: as §1

B. bronchiseptica = test: In vitro MIC in agar, additional microorganisms; format: cell-based; settings: Bordetella bronchiseptica
Source text: as §1

[3] = water
[4] = system: Streptococcus pyogenes C203; test: MIC in broth against Streptococcus pyogenes C203; format: cell-based
Method: The MIC for the compound of Example 13 against Streptococcus pyogenes C203 in broth was 0.008 μg/ml.

physchem = settings: water

Structure (SMILES): Cc1nnc(SCC2=C(C(=O)[O-])N3C(=O)C(NC(=O)CSc4ccc(F)c(Cl)c4)[C@H]3SC2)s1.[Na+] (stereo partly shown)
- MIC (S. typhosa SA12): 32 µg/mL
- MIC ([1]; culture 3055 (control), Trypticase Soy Agar with 4.5% NaCl added (5% NaCl)): 0.03 µg/mL
- MIC ([1]; culture 3055 (control), Trypticase Soy Agar, 0.5% NaCl): 0.03 µg/mL
- MIC ([1]; culture 3130, Trypticase Soy Agar with 4.5% NaCl added (5% NaCl)): 0.25 µg/mL
- MIC ([1]; culture 3130, Trypticase Soy Agar, 0.5% NaCl): 0.5 µg/mL
- MIC ([1]; culture 3131, Trypticase Soy Agar with 4.5% NaCl added (5% NaCl)): 0.25 µg/mL
- MIC ([1]; culture 3131, Trypticase Soy Agar, 0.5% NaCl): 0.25 µg/mL
- MIC ([1]; culture 3132, Trypticase Soy Agar with 4.5% NaCl added (5% NaCl)): 0.13 µg/mL
- MIC ([1]; culture 3132, Trypticase Soy Agar, 0.5% NaCl): 0.13 µg/mL
- MIC ([1]; culture 3133, Trypticase Soy Agar with 4.5% NaCl added (5% NaCl)): 0.13 µg/mL
- MIC ([1]; culture 3133, Trypticase Soy Agar, 0.5% NaCl): 0.13 µg/mL
- MIC ([1]; culture 3134, Trypticase Soy Agar with 4.5% NaCl added (5% NaCl)): 0.25 µg/mL
- MIC ([1]; culture 3134, Trypticase Soy Agar, 0.5% NaCl): 1 µg/mL
- MIC ([1]; culture 3135, Trypticase Soy Agar with 4.5% NaCl added (5% NaCl)): 0.5 µg/mL
- MIC ([1]; culture 3135, Trypticase Soy Agar, 0.5% NaCl): 0.5 µg/mL
- MIC ([1]; culture 3136, Trypticase Soy Agar with 4.5% NaCl added (5% NaCl)): 0.5 µg/mL
- MIC ([1]; culture 3136, Trypticase Soy Agar, 0.5% NaCl): 0.25 µg/mL
- MIC ([1]; culture 3137, Trypticase Soy Agar with 4.5% NaCl added (5% NaCl)): 1 µg/mL
- MIC ([1]; culture 3137, Trypticase Soy Agar, 0.5% NaCl): 1 µg/mL
- MIC ([1]; culture 3138, Trypticase Soy Agar with 4.5% NaCl added (5% NaCl)): 0.5 µg/mL
- MIC ([1]; culture 3138, Trypticase Soy Agar, 0.5% NaCl): 1 µg/mL
- MIC ([1]; culture 3139, Trypticase Soy Agar with 4.5% NaCl added (5% NaCl)): 0.03 µg/mL
- MIC ([1]; culture 3139, Trypticase Soy Agar, 0.5% NaCl): 0.25 µg/mL
- MIC ([1]; culture H232 (control), Trypticase Soy Agar with 4.5% NaCl added (5% NaCl)): 0.06 µg/mL
- MIC ([1]; culture H232 (control), Trypticase Soy Agar, 0.5% NaCl): 0.06 µg/mL
- MIC ([1]; culture Havarmak 1136501, Trypticase Soy Agar with 4.5% NaCl added (5% NaCl)): 1 µg/mL
- MIC ([1]; culture Havarmak 1136501, Trypticase Soy Agar, 0.5% NaCl): 0.5 µg/mL
- MIC ([1]; culture S 61, Trypticase Soy Agar with 4.5% NaCl added (5% NaCl)): 0.5 µg/mL
- MIC ([1]; culture S 61, Trypticase Soy Agar, 0.5% NaCl): 0.5 µg/mL
- MIC ([1]; culture Seattle 966, Trypticase Soy Agar with 4.5% NaCl added (5% NaCl)): 0.06 µg/mL
- MIC ([1]; culture Seattle 966, Trypticase Soy Agar, 0.5% NaCl): 0.25 µg/mL
- MIC (C. ulmi): > 128 µg/mL
- MIC (S. aureus; S. aureus 3055 (penicillin G susceptible)): 0.031 µg/mL
- MIC (S. aureus; S. aureus 3074 (Pen G. resist.)): 0.062 µg/mL
- MIC (S. facalis X66): 400 µg/mL
- MIC [2]: > 128 µg/mL
- MIC (T. mentagrophytes 27): > 128 µg/mL
- MIC (S. typhimurium): 128 µg/mL
- MIC (E. aerogenes EB17): 128 µg/mL
- MIC (S. marcescens SE3): > 128 µg/mL
- MIC (E. amylovora): 64 µg/mL
- MIC (E. coli EC14): 64 µg/mL
- MIC (P. solenaecarum X185): > 128 µg/mL
- MIC (P. aeroginosa X239): > 128 µg/mL
- MIC (A. flavus): > 128 µg/mL
- MIC (H. pneumoniae KL14): 64 µg/mL
- MIC (C. freundii CF17): > 128 µg/mL
- MIC (C. tropicalis A17): > 128 µg/mL
- MIC (B. bronchiseptica): > 128 µg/mL
- solubility upon warming (in words) [3]: increases
- MIC [4]: 8 ng/mL
- solubility (physchem): > 100 mg/mL
